The target in assay [1] is T1, Son of sevenless homolog 1 (Homo sapiens, UniProt Q07889).
T1 sequence (Q07889 whole entry): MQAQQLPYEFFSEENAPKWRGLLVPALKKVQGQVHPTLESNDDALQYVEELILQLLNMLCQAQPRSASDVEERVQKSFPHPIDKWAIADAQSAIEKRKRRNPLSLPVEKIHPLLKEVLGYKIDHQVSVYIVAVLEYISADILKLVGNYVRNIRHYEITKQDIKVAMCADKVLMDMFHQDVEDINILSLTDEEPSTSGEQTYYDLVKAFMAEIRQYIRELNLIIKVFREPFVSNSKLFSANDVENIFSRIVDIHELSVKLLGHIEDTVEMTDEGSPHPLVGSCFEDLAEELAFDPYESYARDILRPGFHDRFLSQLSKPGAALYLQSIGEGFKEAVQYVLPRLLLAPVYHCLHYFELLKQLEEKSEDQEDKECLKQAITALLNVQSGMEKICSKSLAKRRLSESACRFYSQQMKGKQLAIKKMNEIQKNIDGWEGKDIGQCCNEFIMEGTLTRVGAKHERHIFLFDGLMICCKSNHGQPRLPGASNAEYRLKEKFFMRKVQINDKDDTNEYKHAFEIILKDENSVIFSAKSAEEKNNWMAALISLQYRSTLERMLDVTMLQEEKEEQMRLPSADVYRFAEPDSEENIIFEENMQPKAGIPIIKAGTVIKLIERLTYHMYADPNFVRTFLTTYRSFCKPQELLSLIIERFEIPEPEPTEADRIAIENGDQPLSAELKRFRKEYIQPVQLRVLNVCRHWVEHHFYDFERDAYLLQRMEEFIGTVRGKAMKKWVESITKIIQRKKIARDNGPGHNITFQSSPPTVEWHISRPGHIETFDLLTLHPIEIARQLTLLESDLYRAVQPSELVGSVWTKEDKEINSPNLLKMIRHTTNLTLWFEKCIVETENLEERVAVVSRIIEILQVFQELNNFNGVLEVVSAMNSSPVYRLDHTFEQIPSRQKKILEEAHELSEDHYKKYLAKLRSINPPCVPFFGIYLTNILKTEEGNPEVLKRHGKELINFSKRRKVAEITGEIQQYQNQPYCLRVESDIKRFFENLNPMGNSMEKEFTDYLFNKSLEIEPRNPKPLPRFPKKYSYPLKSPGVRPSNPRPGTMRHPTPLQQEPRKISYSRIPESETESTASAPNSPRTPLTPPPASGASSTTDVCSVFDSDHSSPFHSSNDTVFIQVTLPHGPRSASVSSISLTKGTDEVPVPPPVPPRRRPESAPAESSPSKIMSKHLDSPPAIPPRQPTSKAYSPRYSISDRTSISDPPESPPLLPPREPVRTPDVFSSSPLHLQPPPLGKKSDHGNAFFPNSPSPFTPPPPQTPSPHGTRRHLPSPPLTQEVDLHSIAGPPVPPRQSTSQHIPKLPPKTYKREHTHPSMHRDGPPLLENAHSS
Briefly: Inhibition of SOS1 in human K562 cells assessed as reduction in pERK level incubated for 60 mins by HTRF analysis. Format: cell-based. On the technique in general: Time-resolved FRET reads energy transfer from a long-lived donor to a nearby acceptor.

Assay [2] has as its target T1, Son of sevenless homolog 1. Briefly: Inhibition of SOS1 in human Calu-1 cells assessed as reduction in pERK level incubated for 24 hrs by HTRF analysis. Format: cell-based.
The test system of assay [3] is Tyrosine-protein kinase ABL1 (Homo sapiens), P00519 [Y253F]. Briefly: Inhibition of phosphorylated ABL1 Y253F mutant (unknown origin) assessed as residual activity at 100 nM by KINOMEscan analysis relative to control.
Assay [4] deals with Myosin light chain kinase 3 (Homo sapiens) (UniProt Q32MK0). Briefly: Inhibition of MLCK (unknown origin) assessed as residual activity at 100 nM by KINOMEscan analysis relative to control.
Sequence of Myosin light chain kinase 3 (Homo sapiens) (Q32MK0 whole entry, looked up, the tested form may be a part): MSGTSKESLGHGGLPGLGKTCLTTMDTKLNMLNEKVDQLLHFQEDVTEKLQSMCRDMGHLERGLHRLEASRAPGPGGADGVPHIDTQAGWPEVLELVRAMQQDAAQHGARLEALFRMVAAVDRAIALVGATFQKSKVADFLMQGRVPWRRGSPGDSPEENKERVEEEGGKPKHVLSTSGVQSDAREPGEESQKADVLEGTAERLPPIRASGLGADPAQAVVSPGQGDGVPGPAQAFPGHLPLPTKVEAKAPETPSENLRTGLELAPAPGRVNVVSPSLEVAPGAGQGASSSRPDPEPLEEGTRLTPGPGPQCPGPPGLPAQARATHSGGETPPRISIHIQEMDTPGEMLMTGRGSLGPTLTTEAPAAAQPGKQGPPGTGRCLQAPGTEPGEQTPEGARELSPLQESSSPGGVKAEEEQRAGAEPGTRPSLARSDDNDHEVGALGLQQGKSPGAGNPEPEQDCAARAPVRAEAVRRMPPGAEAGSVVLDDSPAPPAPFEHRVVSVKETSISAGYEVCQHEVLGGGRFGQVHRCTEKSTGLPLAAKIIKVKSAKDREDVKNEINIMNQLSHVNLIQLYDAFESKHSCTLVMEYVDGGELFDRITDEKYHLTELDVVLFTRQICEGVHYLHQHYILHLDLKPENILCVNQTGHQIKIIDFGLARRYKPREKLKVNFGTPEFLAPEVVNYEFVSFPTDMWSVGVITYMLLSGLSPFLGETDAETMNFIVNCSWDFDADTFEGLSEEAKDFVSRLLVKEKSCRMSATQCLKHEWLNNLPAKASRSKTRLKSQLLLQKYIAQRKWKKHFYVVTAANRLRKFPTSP
The species named for a further assay is Homo sapiens. Briefly: Inhibition of N-terminal GST-tagged recombinant human SOS1 H905M mutant (564 to 1049 residues) expressed in Escherichia coli assessed as reduction in KRAS G12C mutant activation at 10 uM by HTRF analysis relative to control.
Assay [5] has as its target T2, Serine/threonine-protein kinase Chk1 (Homo sapiens) (UniProt O14757).
T2 sequence (whole entry): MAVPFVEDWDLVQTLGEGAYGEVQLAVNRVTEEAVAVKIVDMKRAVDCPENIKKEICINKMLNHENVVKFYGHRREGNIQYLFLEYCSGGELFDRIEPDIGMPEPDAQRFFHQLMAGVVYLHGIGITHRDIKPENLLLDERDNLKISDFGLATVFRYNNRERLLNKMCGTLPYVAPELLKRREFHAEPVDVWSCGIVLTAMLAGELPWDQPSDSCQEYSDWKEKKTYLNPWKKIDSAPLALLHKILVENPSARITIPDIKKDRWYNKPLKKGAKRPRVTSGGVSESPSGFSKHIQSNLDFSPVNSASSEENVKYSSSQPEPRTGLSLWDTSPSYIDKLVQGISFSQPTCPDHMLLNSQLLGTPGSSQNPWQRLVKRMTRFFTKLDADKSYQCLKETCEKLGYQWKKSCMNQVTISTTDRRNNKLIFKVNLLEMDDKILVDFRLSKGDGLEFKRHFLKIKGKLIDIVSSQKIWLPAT
Briefly: Inhibition of CHEK1 (unknown origin) assessed as residual activity at 100 nM by KINOMEscan analysis relative to control.

In assay [6] the target is T3, MAP/microtubule affinity-regulating kinase 4 (Homo sapiens) (UniProt Q96L34).
T3 sequence (whole entry): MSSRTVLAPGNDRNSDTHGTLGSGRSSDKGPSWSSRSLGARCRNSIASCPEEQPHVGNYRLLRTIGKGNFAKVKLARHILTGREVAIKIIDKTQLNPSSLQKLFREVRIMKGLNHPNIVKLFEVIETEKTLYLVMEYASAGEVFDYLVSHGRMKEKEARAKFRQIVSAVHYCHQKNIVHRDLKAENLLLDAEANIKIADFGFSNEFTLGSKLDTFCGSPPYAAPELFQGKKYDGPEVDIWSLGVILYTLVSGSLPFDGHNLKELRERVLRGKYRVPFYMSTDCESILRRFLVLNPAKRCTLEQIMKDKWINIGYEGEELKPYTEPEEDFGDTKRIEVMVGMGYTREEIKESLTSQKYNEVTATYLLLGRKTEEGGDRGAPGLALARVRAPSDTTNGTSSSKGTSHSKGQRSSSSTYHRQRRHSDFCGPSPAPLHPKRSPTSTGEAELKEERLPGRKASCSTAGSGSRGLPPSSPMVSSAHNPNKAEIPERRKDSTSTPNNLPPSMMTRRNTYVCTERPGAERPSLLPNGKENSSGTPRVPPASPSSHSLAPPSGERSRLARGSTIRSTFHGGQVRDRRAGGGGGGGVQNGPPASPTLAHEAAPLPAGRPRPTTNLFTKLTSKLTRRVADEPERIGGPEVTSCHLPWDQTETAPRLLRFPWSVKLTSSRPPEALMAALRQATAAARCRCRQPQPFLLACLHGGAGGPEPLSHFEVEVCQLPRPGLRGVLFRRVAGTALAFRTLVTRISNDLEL
Briefly: Inhibition of MARK4 (unknown origin) assessed as residual activity at 100 nM by KINOMEscan analysis relative to control.

As usually defined, the IC50 is the concentration that inhibits the measured activity by half. The term inhibition denotes the change of the read-out against control, counted positive when it falls.

With `COc1cc2nc(C)nc(NC(C)c3ccc(-c4cnc5n4CCC5)s3)c2cc1OC` (configuration not stated), the figures for the IC50 in assay [1] and in assay [2] were 1160 nM and 4460 nM, respectively.

For the compound `COc1cc2ncnc(N[C@H](C)c3cccc4ccccc34)c2cc1OC`, the Activity was 98% in assay [3], 97% in assay [4], 100% in assay [5] and 97% in assay [6]. Also, the inhibition in the assay filed under Homo sapiens is 39%.
